# Measurements from patent US20120196899A1, “METHODS AND PRODUCTS FOR TREATING INFLAMMATION” (Rock Creek Pharmaceuticals, Inc., priority 2010, published 2012).
# Several values for one entry are separate records, joined by “and”; a condition that tells them apart may be missing. Equal values may be shown once. Read-outs that look alike come from different tables or passages of the source.
# Assay: Plasma pharmacokinetics after oral multi-dose anatabine polacrilex
# Type: in vivo, Sprague-Dawley rats
# Settings: for Cp,max(1): after dose 1, mean; for Cp,max(3): after dose 3, mean; for Cp,max(2): after dose 2, mean; for AUC(0-inf) / concentration at 270 min / concentration at 300 min / concentration at 475 min / concentration at 540 min / concentration at 600 min / concentration at 720 min / concentration at 30 min / concentration at 60 min / concentration at 235 min / half-life: Sprague-Dawley, rat, plasma; for AUC(0-inf) / half-life: po; for concentration at 270 min / concentration at 300 min / concentration at 475 min / concentration at 540 min / concentration at 600 min / concentration at 720 min / concentration at 30 min / concentration at 60 min / concentration at 235 min: oral, Avg. Conc. of anatabine in plasma, Male and Female
# Experimental: This study consisted of two groups of 8 animals each, 4 males and 4 females.
# Two formulations were prepared; one for each of the two treatment groups. The test compound was formulated for each treatment group just prior to the first dose administration and constantly stirred until dosing was completed (Table 37). Four aliquots of each dose level formulation were collected and stored at −80° C.
# The animals were weighed prior to dosing and received three doses p.o. of test compound at a volume of 5 mL/kg. Blood was collected via the venus plexus (retro-orbital) into tubes containing (K2) EDTA. No more than 0.5 mL was collected per time point.
# Plasma was separated as per package instructions for MICROTAINER® brand collection tubes (3 minutes, 2000×g). Plasma was decanted into microfuge tubes and stored at −80° C. Remaining test compound was placed at −80° C.
# Sample preparation. Plasma samples were treated with three volumes of methanol containing internal standard at 1 μM (R,S)-Antabine-2,4,5,6-d4), incubated 10 min at 4° C., and centrifuged. The amount of the test agent in the supernatant was determined by LC/MS/MS.
# Analysis. Samples were analyzed by LC/MS/MS using an Agilent 6410 mass spectrometer coupled with an Agilent 1200 high pressure liquid chromatography (HPLC) and a CTC PAL chilled autosampler, all controlled by MassHunter software (Agilent). After separation on a Hydrophilic interaction liquid chromatography (HILIC) HPLC column (Sepax) using an acetonitrile-ammonium acetate/acetic acid gradient system, peaks were analyzed by mass spectrometry (MS) using ESI ionization in multiple reaction monitoring (MRM) mode. MassHunter software was used to calculate the concentration of the test compounds in samples from the peak area using the appropriate calibration curves.
# Calibration samples. Calibration curves were determined in rat plasma. Calibration samples were prepared by diluting a 50× stock solution of the test compound in PBS with blank matrix to the appropriate concentration and these samples were prepared as described above in the sample preparation.
# Data Analysis. Descriptive statistics were calculated for all pharmacokinetic parameters. Elimination half-lives (t1/2) were calculated by linear regression of logarithmically transformed plasma concentration data for each period between doses and following the final dose.
# Total areas under the plasma concentration curves (AUC) and under the first moment curves (AUMC) were calculated using linear trapezoidal summation across all concentration time points as well as for intervals between each dose administration and following the final dose. […] Mean absorption times (MAT) were calculated according to the following relation: […]
# where MRT represents the mean residence time. This was calculated from the mean residence times.
# The statistical comparison of parameters between male and female animals was made using a two-tailed, unpaired, t-test with a 95 percent confidence interval. Repeated-measures analysis of variance (ANOVA) was used for multiple comparisons of Cp, max involving successive determinations on the same group of animals.
# [1] = 0.6 mg/kg, male and female combined, mean
# [2] = 6.0 mg/kg, male and female combined, mean
# [3] = all data combined (overall), mean
# [4] = both dose levels and genders combined, anatabine polacrilex p.o.
# [5] = both treatment groups combined, female rats, mean
# [6] = both treatment groups combined, male rats, mean
structure (smiles),measurement,setting,value
"C1=CCC(c2cccnc2)NC1 (racemic) [Anatabine, 1,2,3,6-tetrahydro-[2,3′]bipyridinyl]","Cp,min(2)","0.6 mg/kg BW group, first value of male versus female comparison",15.3 ± 5.5 ng/mL
same,"Cp,min(2)","0.6 mg/kg BW group, second value of male versus female comparison",7.5 ± 1.7 ng/mL
same,"Cp,max(1)","0.6 mg/kg, female rats",38.3 ng/mL
same,"Cp,min(1)","0.6 mg/kg, female rats, mean",10.3 ng/mL
same,"Cp,min(2)","0.6 mg/kg, female rats, mean",7.5 ng/mL
same,MAT0→4 (mean absorption time),"0.6 mg/kg, female rats, mean",0.53 h
same,MTT0→4 (mean transit time),"0.6 mg/kg, female rats, mean",2.98 h
same,AUC0→∞,[1],285 ng·h/mL
same,MAT0→4,[1],0.61 h
same,MTT0→4,[1],3.06 h
same,"Cp,max(1)","0.6 mg/kg, male rats",34.3 ng/mL
same,"Cp,max(3)","0.6 mg/kg, male rats",37.3 ng/mL
same,"Cp,min(1)","0.6 mg/kg, male rats, mean",11.0 ng/mL
same,"Cp,min(2)","0.6 mg/kg, male rats, mean",15.3 ng/mL
same,MAT0→4 (mean absorption time),"0.6 mg/kg, male rats, mean",0.71 h
same,MTT0→4 (mean transit time),"0.6 mg/kg, male rats, mean",3.17 h
same,"Cp,min(2)","6.0 mg/kg BW group, first value of male versus female comparison",93 ± 16 ng/mL
same,"Cp,max(1)","6.0 mg/kg, female rats",260 ng/mL and 259.8 ng/mL
same,"Cp,max(2)","6.0 mg/kg, female rats",312 ng/mL and 312.0 ng/mL
same,"Cp,max(3)","6.0 mg/kg, female rats",375 ng/mL and 374.8 ng/mL
same,"Cp,min(1)","6.0 mg/kg, female rats, mean",52 ng/mL and 51.5 ng/mL
same,"Cp,min(2)","6.0 mg/kg, female rats, mean",180 ng/mL and 180.0 ng/mL
same,MAT0→4 (mean absorption time),"6.0 mg/kg, female rats, mean",0.30 h
same,MTT0→4 (mean transit time),"6.0 mg/kg, female rats, mean",2.76 h
same,AUC0→∞,[2],3496 ng·h/mL
same,MAT0→4,[2],0.52 h
same,MTT0→4,[2],2.97 h
same,"Cp,max(1)","6.0 mg/kg, male rats",287 ng/mL
same,"Cp,max(2)","6.0 mg/kg, male rats",305 ng/mL
same,"Cp,min(1)","6.0 mg/kg, male rats, mean",75 ng/mL
same,"Cp,min(2)","6.0 mg/kg, male rats, mean",93 ng/mL
same,MAT0→4 (mean absorption time),"6.0 mg/kg, male rats, mean",0.73 h
same,MTT0→4 (mean transit time),"6.0 mg/kg, male rats, mean",3.18 h
same,AUC(0-inf),"0.6 mg/kg, female rats, mean",290 ng·h/mL
same,AUC(0-inf),"0.6 mg/kg, male rats, mean",280 ng·h/mL
same,AUC(0-inf),"6.0 mg/kg, female rats, mean",3740 ng·h/mL
same,AUC(0-inf),"6.0 mg/kg, male rats, mean",3260 ng·h/mL
same,MAT0→4,[3],0.56 h
same,MTT0→4,[3],3.01 h
same,mean absorption time (MAT0→4),[4],0.56 ± 1.25 h
same,mean transit time (MTT0→4),[4],3.01 ± 1.25 h
same,concentration at 270 min,"both sexes, 0.2 mg/kg BW, dose group 0.2, combined male and female, 270 min",26 ng/mL
same,concentration at 300 min,"both sexes, 0.2 mg/kg BW, dose group 0.2, combined male and female, 300 min",27 ng/mL
same,concentration at 475 min,"both sexes, 0.2 mg/kg BW, dose group 0.2, combined male and female, 475 min",11 ng/mL
same,concentration at 540 min,"both sexes, 0.2 mg/kg BW, dose group 0.2, combined male and female, 540 min",30 ng/mL
same,concentration at 600 min,"both sexes, 0.2 mg/kg BW, dose group 0.2, combined male and female, 600 min",26 ng/mL
same,concentration at 720 min,"both sexes, 0.2 mg/kg BW, dose group 0.2, combined male and female, 720 min",13 ng/mL
same,concentration at 30 min,"both sexes, 0.2 mg/kg, dose group 0.2, combined male and female, 30 min",36 ng/mL
same,concentration at 60 min,"both sexes, 0.2 mg/kg, dose group 0.2, combined male and female, 60 min",31 ng/mL
same,concentration at 235 min,"both sexes, 0.2 mg/kg, dose group 0.2, combined male and female, 235 min",10 ng/mL
same,concentration at 30 min,"both sexes, 2 mg/kg BW, dose group 2, combined male and female, 30 min",201 ng/mL
same,concentration at 60 min,"both sexes, 2 mg/kg BW, dose group 2, combined male and female, 60 min",139 ng/mL
same,concentration at 235 min,"both sexes, 2 mg/kg BW, dose group 2, combined male and female, 235 min",63 ng/mL
same,concentration at 270 min,"both sexes, 2 mg/kg BW, dose group 2, combined male and female, 270 min",278 ng/mL
same,concentration at 300 min,"both sexes, 2 mg/kg BW, dose group 2, combined male and female, 300 min",222 ng/mL
same,concentration at 475 min,"both sexes, 2 mg/kg BW, dose group 2, combined male and female, 475 min",136 ng/mL
same,concentration at 540 min,"both sexes, 2 mg/kg BW, dose group 2, combined male and female, 540 min",286 ng/mL
same,concentration at 600 min,"both sexes, 2 mg/kg BW, dose group 2, combined male and female, 600 min",237 ng/mL
same,concentration at 720 min,"both sexes, 2 mg/kg BW, dose group 2, combined male and female, 720 min",194 ng/mL
same,half-life,"both sexes, 0.6 mg/kg, 0.6 mg/kg BW total p.o., after final dose, males and females combined, read-out: t1/2, terminal (converted)",1.79 ± 0.64 h
same,half-life,"both sexes, 0.6 mg/kg, male and female combined, mean, read-out: t1/2,0→4 (converted)",2.05 h
same,half-life,"both sexes, 0.6 mg/kg, male and female combined, mean, read-out: t1/2,terminal (converted)",1.79 h
same,half-life,"both sexes, 6 mg/kg, 6.0 mg/kg BW total p.o., after final dose, males and females combined, read-out: t1/2, terminal (converted)",4.53 ± 1.77 h
same,half-life,"both sexes, 6 mg/kg, male and female combined, mean, read-out: t1/2,0→4 (converted)",1.79 h
same,half-life,"both sexes, 6 mg/kg, male and female combined, mean, read-out: t1/2,terminal (converted)",4.53 h
same,half-life,"both sexes, all data combined (overall), mean, read-out: t1/2,0→4 (converted)",1.93 h
same,half-life,"both sexes, both dose levels and genders combined, anatabine polacrilex p.o., read-out: elimination half-life following the first oral dose (t1/2, 0→4) (converted)",1.93 ± 0.73 h
same,AUC(0-inf),"both sexes, 0.6 mg/kg BW total p.o., males and females combined",285 ± 77 ng·h/mL
same,AUC(0-inf),"both sexes, 6.0 mg/kg BW total p.o., males and females combined",3500 ± 559 ng·h/mL
same,MAT0→4,[5],0.42 h
same,MTT0→4,[5],2.87 h
same,MAT0→4,[6],0.72 h
same,MTT0→4,[6],3.18 h
same,Anatabine Concentration in rat plasma,"dose 0.2 mg/kg, female, […], individual animals 2A-2D",<LOQ
same,Anatabine Concentration in rat plasma,"dose 0.2 mg/kg, male, 30 min, individual animals 1A-1D",<LOQ
same,Anatabine Concentration in rat plasma,"dose 0.2 mg/kg, male, 60 min, individual animals 1A-1D",34 ng/mL
same,Anatabine Concentration in rat plasma,"dose 0.2 mg/kg, male, 235 min, individual animals 1A-1D",<LOQ and 13 ng/mL
same,Anatabine Concentration in rat plasma,"dose 0.2 mg/kg, male, 270 min, individual animals 1A-1D",31 ng/mL and 20 ng/mL
same,Anatabine Concentration in rat plasma,"dose 0.2 mg/kg, male, 300 min, individual animals 1A-1D",26 ng/mL and 29 ng/mL
same,Anatabine Concentration in rat plasma,"dose 0.2 mg/kg, male, 475 min, individual animals 1A-1D",9 ng/mL and <LOQ and 18 ng/mL
same,Anatabine Concentration in rat plasma,"dose 0.2 mg/kg, male, 540 min, individual animals 1A-1D",4 ng/mL and 28 ng/mL and 41 ng/mL
same,Anatabine Concentration in rat plasma,"dose 0.2 mg/kg, male, 600 min, individual animals 1A-1D",<LOQ and 17 ng/mL and 35 ng/mL
same,Anatabine Concentration in rat plasma,"dose 0.2 mg/kg, male, 720 min, individual animals 1A-1D",<LOQ and 5 ng/mL and 12 ng/mL
same,Anatabine Concentration in rat plasma,"dose 0.2 mg/kg, male, […], individual animals 1A-1D",<LOQ
same,Anatabine Concentration in rat plasma,"dose 2 mg/kg, female, 30 min, individual animals 4A-4D",78 ng/mL and 218 ng/mL and 98 ng/mL
same,Anatabine Concentration in rat plasma,"dose 2 mg/kg, female, 60 min, individual animals 4A-4D",81 ng/mL and 95 ng/mL and 165 ng/mL
same,Anatabine Concentration in rat plasma,"dose 2 mg/kg, female, 235 min, individual animals 4A-4D",75 ng/mL and 36 ng/mL and 23 ng/mL and 72 ng/mL
